The source of these data is the RepoRT retention time repository.

Structures are written as SMILES.

The series is described as follows: Thermo Scientific Acclaim RSLC 120 C18, 100 × 2.1 mm, 2.2 µm, 30 °C, 0.2 to 0.48 mL/min, estimated dead time 1.1 min; A: 90% water + 10% methanol + 5 mM ammonium acetate; B: methanol + 5 mM ammonium acetate; gradient (min/%B) 0.1/1 3/39 14/99.9 16/99.9. As to conditions: stereoisomer not certain.
For `NC(=O)N1c2ccccc2C(O)C(O)c2ccccc21` (stereo unspecified), the LC retention time was 6.64 min.
Turning to `O=C1NC(=O)C(c2ccccc2)(c2ccccc2)N1`, the LC retention time was 8.26 min.
For `CCC1OC(=O)C(C)C(OC2CC(C)(OC)C(O)C(C)O2)C(C)C(OC2OC(C)CC(N(C)C)C2O)C(C)(O)CC(C)C(=NOCOCCOC)C(C)C(O)C1(C)O` (stereo unspecified) the value was 11.5 min; for `COc1cccc(C(=O)NN(C(=O)c2cc(C)cc(C)c2)C(C)(C)C)c1C`, 9.55 min; for `CCc1cccc(C)c1N(C(=O)C(=O)O)C(C)COC` (stereo unspecified), 8.29 min.
For `CC(C)(C)NCC(O)c1cc(O)cc(O)c1` (stereo unspecified) the value was 3.48 min.
Regarding `CCNc1nc(NC(C)(C)C)[nH]c(=O)n1`, the LC retention time is 8.46 min.
The result for `COc1cc(NS(=O)(=O)c2ccc(NC(C)=O)cc2)nc(OC)n1` reads 5.09 min.
For `COC=C(C(=O)O)c1ccccc1Oc1cc(Oc2ccccc2C#N)ncn1` the value was 7.94 min.
The result for `CCC1(c2cccc(O)c2)CCCCN(C)C1` (stereo unspecified) reads 6.47 min.
Take `CCOc1cc(CC(=O)NC(CC(C)C)c2ccccc2N2CCCCC2)ccc1C(=O)O` (stereo unspecified): the LC retention time is 12.8 min.
With `CCC(=O)OC(OP(=O)(CCCCc1ccccc1)CC(=O)N1CC(C2CCCCC2)CC1C(=O)O)C(C)C` (stereo unspecified), the LC retention time was 13.3 min.
As for `CC(=O)Nc1ccc(S(=O)(=O)Nc2cc(C)on2)cc1`, the LC retention time was 4.33 min.
Consider `CC(CCC(=O)O)C1CCC2C3C(O)CC4CC(O)CCC4(C)C3CCC12C` (stereo unspecified), for which the LC retention time is 11.1 min.
For `CC1=C(C(=O)Nc2ccccc2)S(=O)(=O)CCO1` the value was 5.57 min; for `CC12CCC3c4ccc(O)cc4CCC3C1CC(O)C2=O` (stereo unspecified), 8.42 min.
As for `NS(=O)(=O)c1cc(C(=O)O)cc(N2CCCC2)c1Oc1ccccc1`, the LC retention time was 6.04 min.
For `CC(N)C12CC3CC(CC(C3)C1)C2` (stereo unspecified) the value was 3.19 min; for `CCCCCC(C)N` (stereo unspecified), 4.41 min.
With `COCC(C)N(C(=O)CS(=O)(=O)O)c1c(C)csc1C` (stereo unspecified), the LC retention time is 6.97 min.
The result for `CC(C)(C)c1cc(C(C)(C)C)c(O)c(C(C)(C)C)c1` reads 14.6 min.
The result for `c1ccc2[nH]c(-c3cscn3)nc2c1` reads 6.52 min.
For the compound `COc1cc(OC)nc(NC(=O)NS(=O)(=O)c2cc(NC=O)ccc2C(=O)N(C)C)n1`, the LC retention time was 5.62 min.
The result for `CCCCc1ncc(C=C(Cc2cccs2)C(=O)O)n1Cc1ccc(C(=O)O)cc1` reads 6.51 min; that for `CCC1(O)CCC2C3CCC4=CC(=O)CCC4C3CCC21C` (stereo unspecified), 14 min; that for `CCCCCCCCCCCCOS(=O)(=O)c1ccccc1`, 14.2 min.
For `CCOc1nc2cccc(C(=O)O)c2n1Cc1ccc(-c2ccccc2-c2nn[nH]n2)cc1` the value was 5.86 min; for `CCCCCCC(C)(C)c1ccc(C2CCCC(O)C2)c(O)c1` (stereo unspecified), 13.2 min.
With `CCCCc1oc2ccc(NS(C)(=O)=O)cc2c1C(=O)c1ccc(OCCCN(CCCC)CCCC)cc1`, the LC retention time is 13.3 min.
The result for `CCC1(O)C(=O)OCc2c1cc1n(c2=O)Cc2cc3c(CN(C)C)c(O)ccc3nc2-1` (stereo unspecified) reads 5.61 min; that for `CCOP(=S)(NC(C)CC)Oc1cc(C)ccc1[N+](=O)[O-]` (stereo unspecified), 11.2 min; that for `CC(C)NCC(O)c1ccc(NS(C)(=O)=O)cc1` (stereo unspecified), 3.91 min.
As for `CCc1cccc2c3c([nH]c12)C(CC)(CC(=O)O)OCC3` (stereo unspecified), the LC retention time was 10.5 min.
For `COC(=O)C(Cc1ccccc1)NC(=O)C(CC(=O)O)NCCC(C)(C)C` (stereo unspecified) the value was 10.2 min.
The result for `CCc1ccc(C(=O)NN(C(=O)c2cc(C)cc(C)c2)C(C)(C)C)cc1` reads 10.4 min.
On to `CC12CCC(=O)C=C1C(O)CC1C2CCC2(C)C(O)CCC12` (stereo unspecified), for which the LC retention time was 6.61 min.
